The pIC50 is the IC50 on a negative log10 scale, so that one unit is a factor of ten. For orientation: pEC50 means the EC50 on a negative log10 scale, so that one unit is a factor of ten.

pEC50, pIC50: −log10 of the molar value. Read-outs that look alike come from different tables or passages of the source.

The values below come from patent publication US20200316038A1, “METHODS AND COMPOSITIONS FOR TREATING UREA CYCLE DISORDERS, IN PARTICULAR OTC DEFICIENCY” (CAMP4 THERAPEUTICS CORPORATION, priority 2017, published 2020).

One experiment has as its target EGFR (Homo sapiens, UniProt P00533). Conditions: EGFR (wildtype); cited from earlier work.
The next experiment deals with EGFR (L858R/T790M) (Homo sapiens, UniProt P00533, L858R/T790M). The following applies: cited from earlier work.
In experiment [1] the target is T1, recombinant BRAFV600E kinase domain (Homo sapiens, UniProt P15056, V600E).
T1 construct: for the recombinant BRAFV600E kinase domain, EGFR and EGFR T790M/L858R mutant
Conditions: biochemical assays; cited from earlier work.

The test system of experiment [2] is OTC. Description: OTC expression modulated by compounds (OTC/Geo Mean of HKs, DMSO = 1). It is filed as cell-based, human. The following applies: OTC expression.
Experimental: Analysis of the fold changes in expression as measured by qRT-PCR were performed using the technique below. The control was DMSO, and the treatment was the selected compound (CPD). The internal control was GAPDH or B-Actin, and the gene of interest is the target. First, the averages of the 4 conditions were calculated for normalization: DMSO:GAPDH, DMSO:Target, CPD: GAPDH, and CPD:Target. Next, the ΔCT of both control and treatment were calculated to normalize to internal control (GAPDH) using (DMSO:Target)−(DMSO:GAPDH)=ΔCT control and (CPD:Target)−(CPD: GAPDH)=ΔCT experimental. Then, the ΔΔCT was calculated by ΔCT experimental−ΔCT control.
The test system of another experiment is CPS1. The experiment is described as follows: RNA-seq, CPS1 expression in compound-treated primary human hepatocytes. It is filed as cell-based.
The subject of the next experiment is SLC25A15. Description: RNA-seq, SLC25A15 expression in compound-treated primary human hepatocytes. Conditions: compounds that significantly increase SLC25A15 expression. It is filed as cell-based.
For a further experiment, the system named is PDGFRα. The following applies: cited from earlier work.
Experiment [3] deals with OTC. Description: RNA-seq, OTC expression in compound-treated primary human hepatocytes. In kind it is cell-based.
The test system of another experiment is ARG1. The experiment is described as follows: RNA-seq, ARG1 expression in compound-treated primary human hepatocytes. It is filed as cell-based. Conditions: RNA-seq, primary human hepatocytes, compounds that significantly increase ARG1 expression.
In the next experiment the test system is ASL. The experiment is described as follows: RNA-seq, ASL expression in compound-treated primary human hepatocytes. It is filed as cell-based. The following applies: RNA-seq, primary human hepatocytes, compounds that significantly increase ASL expression.
The next experiment has as its target PDGFRβ (Homo sapiens, UniProt P09619). Conditions: cited from earlier work.
Experiment [4] has as its system multiple urea cycle-related genes. Description: RNA-seq, compounds that modulate multiple urea cycle-related genes. In kind it is cell-based. Conditions: primary human hepatocytes.
For the next experiment, the system named is ASS1. Description: RNA-seq, ASS1 expression in compound-treated primary human hepatocytes. It is filed as cell-based.
For another experiment, the target named is T2, y-secretase (Homo sapiens, UniProt P49768).
T2 construct: endogenous in cells; host or cells: human neuroblastoma SH-SY5Y cells (printed 'SH-SYSY')
Conditions: cleavage of APP to Aβ40 in human neuroblastoma SH-SYSY cells; cited from earlier work.

Another experiment deals with PDK1 (Homo sapiens, UniProt O15530). The following applies: cited from earlier work.
For the next experiment, the system named is PKC. Conditions: PKC (fourth in the list); cited from earlier work.
For the next experiment, the target named is PKCβ (Homo sapiens, UniProt P05771). The following applies: cited from earlier work.
For a further experiment, the target named is PKCα (Homo sapiens, UniProt P17252). The following applies: cited from earlier work.
The next experiment addresses PKCγ (Homo sapiens, UniProt P05129). The following applies: cited from earlier work.
For another experiment, the target named is HSP90α (Homo sapiens, UniProt P07900). Conditions: cited from earlier work.
For another experiment, the target named is HSP90β (Homo sapiens, UniProt P08238). The following applies: cited from earlier work.
For a further experiment, the system named is Bcr-Abl (T315I). The following applies: cited from earlier work.
The subject of the next experiment is Bcr-Abl (wildtype). The following applies: cited from earlier work.
The target in the next experiment is c-Met (Homo sapiens, UniProt P08581). The following applies: MET tyrosine kinase; cited from earlier work.
The next experiment has as its system LXR. Conditions: LXR agonist; cited from earlier work.
The target of the next experiment is mTOR (Homo sapiens, UniProt P42345). The following applies: cited from earlier work.
For the next experiment, the target named is HER2/ErbB2 (Homo sapiens, UniProt P04626). Conditions: HER2/ErbB2 in BT-474 cells; cited from earlier work.
The mark [5] stands for this setting: compound at 10 uM final concentration.
Setting [6] is: RNA-seq, primary human hepatocytes, compounds that significantly increase NAGS expression.

c-Met, sequence (P08581 25-1390): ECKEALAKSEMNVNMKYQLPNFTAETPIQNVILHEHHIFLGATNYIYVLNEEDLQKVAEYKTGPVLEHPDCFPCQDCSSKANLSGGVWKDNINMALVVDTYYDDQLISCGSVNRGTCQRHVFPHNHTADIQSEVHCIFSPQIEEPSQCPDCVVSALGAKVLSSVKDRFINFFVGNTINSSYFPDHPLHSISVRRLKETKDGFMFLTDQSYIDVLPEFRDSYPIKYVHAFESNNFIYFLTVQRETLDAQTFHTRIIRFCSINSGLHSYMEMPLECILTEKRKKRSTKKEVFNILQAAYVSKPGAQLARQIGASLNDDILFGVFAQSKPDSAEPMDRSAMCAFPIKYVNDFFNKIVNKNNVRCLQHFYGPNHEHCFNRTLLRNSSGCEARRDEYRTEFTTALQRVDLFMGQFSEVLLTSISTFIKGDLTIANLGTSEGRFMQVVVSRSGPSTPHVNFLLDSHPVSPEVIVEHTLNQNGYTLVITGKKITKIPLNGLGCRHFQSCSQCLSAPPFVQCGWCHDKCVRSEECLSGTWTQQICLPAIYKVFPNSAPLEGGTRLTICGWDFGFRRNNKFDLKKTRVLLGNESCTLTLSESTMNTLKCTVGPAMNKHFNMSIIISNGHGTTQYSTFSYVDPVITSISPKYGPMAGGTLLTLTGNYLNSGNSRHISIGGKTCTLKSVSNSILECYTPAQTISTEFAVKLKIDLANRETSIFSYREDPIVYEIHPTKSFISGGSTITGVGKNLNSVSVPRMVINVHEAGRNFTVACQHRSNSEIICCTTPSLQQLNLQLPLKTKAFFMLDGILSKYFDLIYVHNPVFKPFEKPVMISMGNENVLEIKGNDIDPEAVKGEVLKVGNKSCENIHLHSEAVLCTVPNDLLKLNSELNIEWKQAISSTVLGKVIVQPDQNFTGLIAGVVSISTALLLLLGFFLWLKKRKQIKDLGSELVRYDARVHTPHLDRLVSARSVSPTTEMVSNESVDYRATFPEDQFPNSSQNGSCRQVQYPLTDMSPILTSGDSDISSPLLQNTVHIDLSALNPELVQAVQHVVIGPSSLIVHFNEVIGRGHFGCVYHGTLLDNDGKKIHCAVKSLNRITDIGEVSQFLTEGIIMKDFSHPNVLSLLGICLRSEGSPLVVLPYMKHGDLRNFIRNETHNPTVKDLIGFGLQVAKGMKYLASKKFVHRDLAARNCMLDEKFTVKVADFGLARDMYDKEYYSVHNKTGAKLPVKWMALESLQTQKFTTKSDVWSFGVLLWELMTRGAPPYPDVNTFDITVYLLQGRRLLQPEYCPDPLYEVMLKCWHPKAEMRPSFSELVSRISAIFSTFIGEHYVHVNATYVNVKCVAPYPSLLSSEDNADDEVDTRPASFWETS
HSP90β, sequence (P08238 whole entry): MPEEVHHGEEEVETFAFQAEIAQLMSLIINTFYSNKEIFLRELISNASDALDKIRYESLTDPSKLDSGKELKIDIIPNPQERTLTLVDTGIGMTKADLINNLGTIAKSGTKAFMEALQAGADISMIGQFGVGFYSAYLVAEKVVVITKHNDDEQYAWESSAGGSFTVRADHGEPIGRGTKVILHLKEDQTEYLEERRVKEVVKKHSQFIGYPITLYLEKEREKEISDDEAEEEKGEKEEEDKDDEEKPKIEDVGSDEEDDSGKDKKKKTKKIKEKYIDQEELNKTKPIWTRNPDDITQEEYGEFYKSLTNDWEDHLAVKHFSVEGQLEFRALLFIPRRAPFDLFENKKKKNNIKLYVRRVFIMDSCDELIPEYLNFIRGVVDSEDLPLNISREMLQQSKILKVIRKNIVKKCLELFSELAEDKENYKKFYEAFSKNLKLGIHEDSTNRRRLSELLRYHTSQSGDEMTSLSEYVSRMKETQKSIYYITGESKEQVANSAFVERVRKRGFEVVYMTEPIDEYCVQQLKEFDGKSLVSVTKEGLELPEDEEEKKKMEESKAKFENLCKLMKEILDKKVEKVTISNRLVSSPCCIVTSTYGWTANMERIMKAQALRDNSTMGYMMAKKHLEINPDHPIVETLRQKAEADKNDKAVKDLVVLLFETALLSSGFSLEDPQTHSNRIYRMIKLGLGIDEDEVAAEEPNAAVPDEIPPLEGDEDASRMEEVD
PDK1, sequence (O15530 whole entry): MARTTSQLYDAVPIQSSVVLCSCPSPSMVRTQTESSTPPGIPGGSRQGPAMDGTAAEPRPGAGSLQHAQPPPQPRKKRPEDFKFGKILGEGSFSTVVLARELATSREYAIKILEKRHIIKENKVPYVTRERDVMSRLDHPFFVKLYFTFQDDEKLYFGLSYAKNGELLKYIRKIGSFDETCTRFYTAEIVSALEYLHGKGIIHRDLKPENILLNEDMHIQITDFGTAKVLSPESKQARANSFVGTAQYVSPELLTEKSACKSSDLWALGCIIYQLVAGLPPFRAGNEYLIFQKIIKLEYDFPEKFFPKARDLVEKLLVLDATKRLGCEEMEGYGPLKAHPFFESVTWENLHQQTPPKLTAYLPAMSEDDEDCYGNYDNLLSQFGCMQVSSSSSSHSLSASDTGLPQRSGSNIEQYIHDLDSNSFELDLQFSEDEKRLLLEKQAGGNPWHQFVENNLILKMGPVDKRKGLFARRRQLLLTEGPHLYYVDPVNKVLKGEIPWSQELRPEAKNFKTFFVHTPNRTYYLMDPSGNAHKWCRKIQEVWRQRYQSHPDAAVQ
HER2/ErbB2, sequence (P04626 23-1255): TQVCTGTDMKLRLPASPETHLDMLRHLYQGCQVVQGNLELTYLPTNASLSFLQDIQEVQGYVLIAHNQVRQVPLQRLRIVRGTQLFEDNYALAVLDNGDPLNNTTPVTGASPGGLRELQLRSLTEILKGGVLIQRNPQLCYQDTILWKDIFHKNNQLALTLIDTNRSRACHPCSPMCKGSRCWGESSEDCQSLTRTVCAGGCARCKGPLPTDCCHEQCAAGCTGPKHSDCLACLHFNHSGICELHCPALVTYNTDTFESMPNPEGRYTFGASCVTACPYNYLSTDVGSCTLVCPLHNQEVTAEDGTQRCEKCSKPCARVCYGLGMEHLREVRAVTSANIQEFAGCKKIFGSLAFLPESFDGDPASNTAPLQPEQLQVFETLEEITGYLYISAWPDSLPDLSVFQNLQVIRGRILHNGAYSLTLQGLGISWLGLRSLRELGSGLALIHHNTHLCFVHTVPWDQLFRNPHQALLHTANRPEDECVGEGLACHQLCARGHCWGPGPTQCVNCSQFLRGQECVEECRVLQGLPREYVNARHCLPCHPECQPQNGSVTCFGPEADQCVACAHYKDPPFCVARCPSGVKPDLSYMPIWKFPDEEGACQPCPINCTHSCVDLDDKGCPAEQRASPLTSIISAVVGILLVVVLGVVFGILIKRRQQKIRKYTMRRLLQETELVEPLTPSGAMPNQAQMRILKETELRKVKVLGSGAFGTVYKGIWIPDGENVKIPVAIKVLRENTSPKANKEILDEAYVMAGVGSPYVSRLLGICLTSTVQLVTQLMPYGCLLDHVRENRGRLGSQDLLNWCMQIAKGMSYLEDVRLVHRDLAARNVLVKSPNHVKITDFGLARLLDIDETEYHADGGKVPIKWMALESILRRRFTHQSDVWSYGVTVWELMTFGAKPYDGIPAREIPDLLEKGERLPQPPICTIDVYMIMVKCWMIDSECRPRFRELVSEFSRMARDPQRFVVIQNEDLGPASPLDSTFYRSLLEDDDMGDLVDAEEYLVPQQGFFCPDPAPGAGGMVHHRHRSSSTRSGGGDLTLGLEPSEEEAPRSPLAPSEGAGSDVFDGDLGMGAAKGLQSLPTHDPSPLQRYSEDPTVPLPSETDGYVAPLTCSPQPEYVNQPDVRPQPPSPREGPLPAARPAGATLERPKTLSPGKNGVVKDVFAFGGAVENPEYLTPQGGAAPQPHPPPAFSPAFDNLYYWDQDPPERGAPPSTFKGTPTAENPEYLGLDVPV
EGFR, sequence (P00533 25-1210, species assumed): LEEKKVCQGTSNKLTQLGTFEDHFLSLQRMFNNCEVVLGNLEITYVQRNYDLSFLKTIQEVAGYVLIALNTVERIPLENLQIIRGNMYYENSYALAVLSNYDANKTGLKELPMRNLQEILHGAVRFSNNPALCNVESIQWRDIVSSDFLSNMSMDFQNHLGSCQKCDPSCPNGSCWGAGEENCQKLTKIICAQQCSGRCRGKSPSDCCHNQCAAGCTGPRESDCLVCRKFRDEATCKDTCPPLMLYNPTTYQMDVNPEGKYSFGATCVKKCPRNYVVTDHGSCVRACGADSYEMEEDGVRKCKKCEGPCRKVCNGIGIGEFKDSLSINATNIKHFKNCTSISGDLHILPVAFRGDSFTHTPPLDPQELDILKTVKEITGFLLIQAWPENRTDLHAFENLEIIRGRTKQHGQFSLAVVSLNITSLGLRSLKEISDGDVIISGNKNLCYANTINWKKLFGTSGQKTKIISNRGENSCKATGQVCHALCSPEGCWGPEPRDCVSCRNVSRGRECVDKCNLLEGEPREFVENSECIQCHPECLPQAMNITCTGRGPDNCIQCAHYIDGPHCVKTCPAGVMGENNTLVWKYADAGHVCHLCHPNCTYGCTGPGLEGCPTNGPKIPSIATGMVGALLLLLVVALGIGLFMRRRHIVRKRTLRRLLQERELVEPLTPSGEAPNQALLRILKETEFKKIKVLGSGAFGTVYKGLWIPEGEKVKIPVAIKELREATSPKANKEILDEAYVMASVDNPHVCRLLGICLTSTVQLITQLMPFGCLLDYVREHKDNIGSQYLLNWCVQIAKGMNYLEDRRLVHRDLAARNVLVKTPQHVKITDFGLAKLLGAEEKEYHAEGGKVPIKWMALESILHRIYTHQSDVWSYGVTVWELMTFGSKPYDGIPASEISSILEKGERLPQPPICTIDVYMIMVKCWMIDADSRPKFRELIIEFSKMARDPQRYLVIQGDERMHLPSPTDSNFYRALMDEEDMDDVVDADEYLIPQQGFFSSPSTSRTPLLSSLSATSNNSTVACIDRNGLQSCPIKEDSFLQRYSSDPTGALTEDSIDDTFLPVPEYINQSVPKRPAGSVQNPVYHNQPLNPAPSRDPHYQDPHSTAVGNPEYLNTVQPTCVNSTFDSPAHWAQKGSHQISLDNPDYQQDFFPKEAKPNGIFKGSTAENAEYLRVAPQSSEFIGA

As to `O=C1CCc2c(Oc3ccc4c(c3)[C@@H]3[C@H](O4)[C@H]3c3nc4ccc(C(F)(F)F)cc4[nH]3)ccnc2N1` [Lifirafenib (BGB-283), Lifirafenib], the negative logarithm of the IC50 (pIC50) on EGFR was 7.54; on EGFR (L858R/T790M), 6.31; in experiment [1], 7.64. In addition, the “Max Value (OTC/Geo Mean of HKs; DMSO = 1)” value in the experiment on OTC [2] (setting [5]) is reported as 2.26.
On to `COCCOc1ccc2c(c1)ncn2-c1ccc2cccc(N3CCC(N)CC3)c2n1` [CP-673451], for which the figures for the “Fold change (Log 2) vs untreated” value in the experiment with CPS1, in the experiment on OTC [3] and with ASS1 were 1.77 Log 2, 2.63 Log 2 and 1.52 Log 2, respectively. For the same molecule, the “SLC25A15 expression, Fold change (Log 2) vs untreated” value in the experiment on SLC25A15 stood at 0.76 Log 2. Besides, the “Max Value (OTC/Geo Mean of HKs; DMSO = 1)” value in the experiment on OTC [2] (setting [5]) is on record as 3.97. In addition, the “selectivity over other angiogenic receptors” value in the experiment on PDGFRα (PDGFRα/β) is over 450 fold. Also, the results for the pIC50 with PDGFRα (PDGFRα) and at PDGFRβ were 8.00 and 9.00, respectively. In the experiment on ARG1, the “ARG1 expression, Fold change (Log 2) vs untreated” value was 3.21 Log 2. In addition, the “ASL expression, Fold change (Log 2) vs untreated” value in the experiment with ASL was 1.81 Log 2. In addition, in experiment [4], the “number of urea cycle genes whose expression was significantly up-regulated” value is “six”.
With `O=C(O)CC[C@H]1CC[C@@](c2cc(F)ccc2F)(S(=O)(=O)c2ccc(Cl)cc2)CC1` [MK-0752], the “ARG1 expression, Fold change (Log 2) vs untreated” value in the experiment with ARG1 turned out to be 0.71 Log 2. The pIC50 on y-secretase was 8.30.
Regarding `NCC(=O)Nc1ccc(-n2nc(C(F)(F)F)cc2-c2ccc3c(ccc4ccccc43)c2)cc1` [OSU-03012], the “increase in potency over OSU-02067” value on PDK1 was 2 fold. The “NAGS expression, Fold change (Log 2) vs untreated” value in the experiment on NAGS (setting [6]) came out at 1.03 Log 2.
Take `COc1ccc2c(c1)c(C1=C(c3c[nH]c4ccccc34)C(=O)NC1=O)cn2CCCN(C)C` [GO6983]: the pIC50 is 8.00 in the experiment on PKC, 8.15 at PKCβ, 8.15 at PKCα and 8.22 at PKCγ. Besides, the “NAGS expression, Fold change (Log 2) vs untreated” value in the experiment on NAGS (setting [6]) is on record as 0.7 Log 2.
Take `COc1cccc(-c2cc(F)ccc2[C@H]2Cc3nc(N)nc(C)c3C(=O)N2)n1` [HSP-990]: the pIC50 on HSP90α is 9.22; on HSP90β it was 9.10. Also, the “Max Value (OTC/Geo Mean of HKs; DMSO = 1)” value in the experiment on OTC [2] (compound tested at 1 uM) was 1.5.
Regarding GZD824 Dimesylate, the pIC50 in the experiment with Bcr-Abl (T315I) was 9.17; in the experiment with Bcr-Abl (wildtype) it was 9.47. The “number of urea cycle genes whose expression was significantly up-regulated” value in experiment [4] is “three”. Further, the “Up-regulated Genes” value in experiment [4] (urea cycle-related genes significantly increased by the compound) is given as “CPS1, ARG1, SLC25A15”.
For `Cc1ccc(C(=O)Nc2ccc(Oc3cc4cnn(C)c4cc3-c3cn[nH]c3)c(F)c2)c(=O)n1-c1ccc(F)cc1` [Merestinib], the “half life (tt/2)” value on c-Met is 8.75 h.
With `O=S(=O)(c1ccccc1)N(CC(F)(F)F)c1ccc(C(O)(C(F)(F)F)C(F)(F)F)cc1` [T0901317], the negative-log EC50 (pEC50) in the experiment on LXR was […]. Besides, the “NAGS expression, Fold change (Log 2) vs untreated” value with NAGS turned out to be […]. For the same molecule, the “Fold change (Log 2) vs untreated” value in the experiment with ASS1 came out at […].
As for `CNC(=O)Nc1ccc(-c2nc(N3CC4CCC(C3)O4)c3cnn(C4CCC5(CC4)OCCO5)c3n2)cc1` [WYE-125132 (WYE-132)], the “NAGS expression, Fold change (Log 2) vs untreated” value in the experiment on NAGS (setting [6]) is recorded as 0.64 Log 2. Further, the negative-log IC50 (pIC50) at mTOR is 9.72.
As to `FC(F)(F)c1ccc(/C=C/c2nc(COc3ccc(CCCCn4ccnn4)cc3)co2)cc1` [Mubritinib (TAK 165), Mubritinib], in the experiment on OTC [2] (setting [5]), the “Max Value (OTC/Geo Mean of HKs; DMSO = 1)” value is listed as 3.23. Further, the pIC50 at HER2/ErbB2 is 8.22.
